Measurements as given in patent publication US20080015202A1, “Thiazole Derivatives Having Vap-1 Inhibitory Activity” (Astellas Pharma Inc., priority 2004, published 2008).
Where a name gives a salt, the structure may show the parent alone.

target: T1, VAP-1 enzyme (SSAO) in human plasma (Homo sapiens, UniProt Q16853); experiment: Inhibitory effect on VAP-1 enzyme (SSAO) activity in human plasma, radiochemical-enzyme assay with 14C-benzylamine; assay type: biochemical; settings: human plasma enzyme suspension; 30 min pre-incubation at room temperature; 14C-benzylamine 2×10^−5 mol/l, 37° C., 1 hour
T1 construct: The enzyme suspension prepared from blood plasma was pre-incubated with one of the present compounds; from tissue; host or cells: human blood plasma
T1 sequence (Q16853 27-763 limits assumed): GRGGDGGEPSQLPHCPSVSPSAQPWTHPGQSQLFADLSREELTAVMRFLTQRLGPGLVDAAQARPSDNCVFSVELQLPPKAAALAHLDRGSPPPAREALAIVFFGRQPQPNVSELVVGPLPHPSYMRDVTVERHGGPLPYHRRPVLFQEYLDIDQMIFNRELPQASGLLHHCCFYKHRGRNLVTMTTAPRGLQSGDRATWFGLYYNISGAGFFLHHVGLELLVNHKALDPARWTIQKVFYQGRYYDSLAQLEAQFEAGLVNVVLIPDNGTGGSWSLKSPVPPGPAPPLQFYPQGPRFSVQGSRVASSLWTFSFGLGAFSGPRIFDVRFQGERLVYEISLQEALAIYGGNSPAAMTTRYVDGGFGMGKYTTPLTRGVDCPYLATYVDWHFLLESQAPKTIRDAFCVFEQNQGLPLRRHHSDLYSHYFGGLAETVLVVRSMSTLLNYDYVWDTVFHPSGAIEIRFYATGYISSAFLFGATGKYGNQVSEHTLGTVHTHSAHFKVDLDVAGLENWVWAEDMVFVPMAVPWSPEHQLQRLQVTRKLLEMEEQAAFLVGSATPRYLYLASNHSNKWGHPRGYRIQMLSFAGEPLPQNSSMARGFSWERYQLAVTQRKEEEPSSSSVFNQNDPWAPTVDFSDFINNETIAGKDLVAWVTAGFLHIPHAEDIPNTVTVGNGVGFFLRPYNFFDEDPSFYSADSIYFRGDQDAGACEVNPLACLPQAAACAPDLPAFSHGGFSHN
Protocol: Inhibitory Effect of the Present Compounds on VAP-1 Enzyme (SSAO) Activity in Human Plasma.
VAP-1 enzyme (SSAO) activity in human plasma was determined by a radiochemical-enzyme assay using ^14C-benzylamine as an artificial substrate. The enzyme suspension prepared from blood plasma was pre-incubated with one of the present compounds or control compound (Reference Example) in 96-well microplate at room temperature for 30 minutes. The enzyme suspension was then incubated with ^14C-benzylamine (2×10^−5 mol/l final concentration) in a final volume of 50 μl at 37° C. for 1 hour. The enzyme reaction was terminated by adding 2 mol/l (50 μl) citric acid. The oxidized products were directly extracted into a 200 μl toluene scintillator, and its radioactivity was measured by a scintillation spectrometer. Inhibition activity was expressed as IC50 (μmol/l) value.

Structure (SMILES) | IC50 [nM]
CC(=O)Nc1nc(CCc2ccc(CNC(=N)N)s2)cs1 [Production Example 3, N-(4-{2-[5-({[amino(imino)methyl]amino}methyl)-2-thienyl]ethyl}thiazol-2-yl)acetamide hydrochloride] | 12
CC(=O)Nc1nc(CCc2ccc(CC(=O)NC(=N)N)s2)cs1 [Production Example 4, 2-{5-[2-(2-acetylaminothiazol-4-yl)ethyl]-2-thienyl}-N-[amino(imino)methyl]acetamide] | 2.4
CC(=O)Nc1nc(CCc2ccc(Cc3c[nH]c(N)n3)cc2)cs1 [Production Example 17, N-[4-(2-{4-[(2-amino-1H-imidazol-4-yl)methyl]phenyl}ethyl)thiazol-2-yl]acetamide] | 5.3

system: not given; experiment: not given; settings: not given

Structure (SMILES) | melting point [°C]
CC(=O)Nc1nc(CCc2ccc(CCNC(=N)N)s2)cs1 [Production Example 1, N-(4-{2-[5-(2-{[amino(imino)methyl]amino}ethyl)-2-thienyl]ethyl}thiazol-2-yl)acetamide] | 121.5 to 123
CC(=O)Nc1nc(CCc2ccc(CC(=O)NC(=N)N)s2)cs1 [Production Example 4, 2-{5-[2-(2-acetylaminothiazol-4-yl)ethyl]-2-thienyl}-N-[amino(imino)methyl]acetamide] | 188.5 to 190
CC(=O)Nc1nc(CCc2ccc(CC(=O)O)s2)cs1 [Production Example 5, 2-{5-[2-(2-acetylaminothiazol-4-yl)ethyl]-2-thienyl}acetic acid] | 172 to 173.5
CC(=O)Nc1nc(CCc2ccc(CN3CCN(C(=O)OC(C)(C)C)CC3)cc2)cs1 [Production Example 11, tert-butyl 4-{4-[2-(2-acetylaminothiazol-4-yl)ethyl]benzyl}-1-piperazinecarboxylate] | 140 to 141
CC(=O)Nc1nc(CCc2ccc(CN3CCNCC3)cc2)cs1 [Production Example 12, N-(4-{2-[4-(1-piperazinylmethyl)phenyl]ethyl}thiazol-2-yl)acetamide] | 164 to 165.5
